Test results taken from patent publication US11802120B2, “Fused cyclic urea derivatives as CRHR2 antagonist” (RaQualia Pharma Inc., priority 2018, dated 2023).
One block for each compound: values may come before it.

Molecular target: T1, human CRHR2-alpha (Homo sapiens, UniProt Q13324)
T1 sequence (Q13324 1-411): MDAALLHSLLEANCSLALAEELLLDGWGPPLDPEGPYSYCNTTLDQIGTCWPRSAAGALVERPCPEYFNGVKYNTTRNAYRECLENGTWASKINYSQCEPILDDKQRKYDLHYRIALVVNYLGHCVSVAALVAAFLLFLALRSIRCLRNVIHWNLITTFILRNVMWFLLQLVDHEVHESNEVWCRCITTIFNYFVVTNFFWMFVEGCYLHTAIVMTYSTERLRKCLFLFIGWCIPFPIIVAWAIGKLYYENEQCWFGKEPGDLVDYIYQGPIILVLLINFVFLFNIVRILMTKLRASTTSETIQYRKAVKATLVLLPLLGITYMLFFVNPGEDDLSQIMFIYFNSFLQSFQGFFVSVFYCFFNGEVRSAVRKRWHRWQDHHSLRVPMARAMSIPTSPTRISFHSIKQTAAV
Experiment: cAMP functional assay for human CRHR2 (LANCE Ultra cAMP, TR-FRET)
Assay type: cell-based
Conditions: CHO-K1 cells expressing human CRHR2-alpha, agonist human urocortin2 at EC80, cAMP; read-out: IC50 against CRHR2
Method in brief: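 First, starved and frozen CHO-K1 cells expressing the receptor are thawed into IBMX-containing HBSS buffer (pH 7.4). Next, compounds are added for 30 min at 25° C. Then agonist at EC80 (urocortin2 or CRF, per receptor) is added for another 30 min, followed by cAMP detection reagents.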

SMILES: Cc1ncc(Cl)cc1C(=O)N[C@H]1CC[C@H](Cn2c(=O)n(-c3cnc(OCCO)c(F)c3)c3ccccc32)CC1 [Example 553, 5-chloro-N-((1r,4r)-4-((3-(5-fluoro-6-(2-hydroxyethoxy)pyridin-3-yl)-2-oxo-2,3-dihydro-1H-benzo[d]imidazol-1-yl)methyl)cyclohexyl)-2-methylnicotinamide]
IC50: < 300 nM

SMILES: CNC(=O)c1ncc(-n2c(=O)n(C[C@H]3CC[C@H](NC(=O)c4cc(Cl)cnc4C(F)F)CC3)c3ccccc32)cc1Cl [Example 555, 3-chloro-5-(3-(((1r,4r)-4-(5-chloro-2-(difluoromethyl)nicotinamido)cyclohexyl)methyl)-2-oxo-2,3-dihydro-1H-benzo[d]imidazol-1-yl)-N-methylpicolinamide]
IC50: < 300 nM

SMILES: CNC(=O)c1ccc(-n2c(=O)n(C[C@H]3CC[C@H](NC(=O)c4cc(Cl)cnc4C(F)F)CC3)c3ccccc32)c(C)n1 [Example 556, 5-(3-(((1r,4r)-4-(5-chloro-2-(difluoromethyl)nicotina-mido)cyclohexyl)methyl)-2-oxo-2,3-dihydro-1H-benzo[d]imidazol-1-yl)-N,6-dimethylpicolinamide]
IC50: < 300 nM

SMILES: Cc1cc(N2CCNC2=O)ncc1-n1c(=O)n(C[C@H]2CC[C@H](NC(=O)c3cc(Cl)cnc3C(F)F)CC2)c2ccccc21 [Example 558, 5-chloro-2-(difluoromethyl)-N-((1r,4r)-4-((3-(4-methyl-6-(2-oxoimidazolidin-1-yl)pyridin-3-yl)-2-oxo-2,3-dihydro-1H-benzo[d]imidazol-1-yl)methyl)cyclohexyl) nicotinamide]
IC50: < 300 nM

SMILES: Cc1cc(N2CCCC2=O)ncc1-n1c(=O)n(C[C@H]2CC[C@H](NC(=O)c3cc(Cl)cnc3C(F)F)CC2)c2ccccc21 [Example 561, 5-chloro-2-(difluoromethyl)-N-((1r,4r)-4-((3-(4-methyl-6-(2-oxopyrrolidin-1-yl)pyridin-3-yl)-2-oxo-2,3-dihydro-1H-benzo[d]imidazol-1-yl)methyl)cyclohexyl) nicotinamide]
IC50: < 300 nM

SMILES: CNC(=O)c1ccc(-n2c(=O)n(C[C@H]3CC[C@H](NC(=O)c4cc(Cl)cnc4C(F)F)CC3)c3ccc(F)cc32)cn1 [Example 562, 5-(3-(((1r,4r)-4-(5-chloro-2-(difluororomethyl)nicotina-mido)cyclohexyl)methyl)-6-fluoro-2-oxo-2,3-dihydro-1H-benzo[d]imidazol-1-yl)-N-methylpicolinamide]
IC50: < 300 nM

SMILES: Cn1ccnc1-c1ccc(-n2c(=O)n(C[C@H]3CC[C@H](NC(=O)c4cc(Cl)cnc4C(F)F)CC3)c3ccccc32)cc1 [Example 567, 5-chloro-2-(difluoromethyl)-N-((1r,4r)-4-((3-(4-(1-methyl-1H-imidazol-2-yl)phenyl)-2-oxo-2,3-dihydro-1H-benzo[d]imidazol-1-yl)methyl)cyclo-hexyl)nicotinamide]
IC50: < 300 nM

SMILES: Cc1ncc(Cl)cc1C(=O)N[C@H]1CC[C@H](Cn2c(=O)n(-c3cccc(-c4cocn4)c3)c3ccccc32)CC1 [Example 568, 5-chloro-2-methyl-N-((1r,4r)-4-((3-(3-(oxazol-4-yl)phenyl)-2-oxo-2,3-dihydro-1H-benzo [d]imidazol-1-yl)methyl)cyclo-hexyl)nicotinamide]
IC50: < 300 nM

SMILES: O=C(N[C@H]1CC[C@H](Cn2c(=O)n(-c3ccc(-n4ccnc4)cc3)c3ccccc32)CC1)c1cc(Cl)cnc1C(F)F [Example 569, N-((1r,4r)-4-((3-(4-(1H-imidazol-1-yl)phenyl)-2-oxo-2,3-dihydro-1H-benzo[d]imidazol-1-yl)methyl)cyclo-hexyl)-5-chloro-2-(difluoro-methyl)nicotinamide]
IC50: < 300 nM

SMILES: O=C(N[C@H]1CC[C@H](Cn2c(=O)n(-c3ccnc(-n4ccnc4)c3)c3ccccc32)CC1)c1cc(Cl)cnc1C(F)F [Example 570, N-((1r,4r)-4-((3-(2-(1H-imidazol-1-yl)pyridin-4-yl)-2-oxo-2,3-dihydro-1H-benzo [d]imidazol-1-yl)methyl)cyclohexyl)-5-chloro-2-(difluoromethyl)nicotinamide]
IC50: < 300 nM

SMILES: O=C(N[C@H]1CC[C@H](Cn2c(=O)n(-c3ccc(NCCO)nc3)c3ccccc32)CC1)c1cc(Cl)cnc1C(F)F [Example 571, 5-chloro-2-(difluoromethyl)-N-((1r,4r)-4-((3-(6-((2-hydroxyethyl)amino)pyridin-3-yl)-2-oxo-2,3-dihydro-1H-benzo[d]imidazol-1-yl)methyl)cyclohexyl)nicotinamide]
IC50: < 300 nM

SMILES: COCCNc1ccc(-n2c(=O)n(C[C@H]3CC[C@H](NC(=O)c4cc(Cl)cnc4C(F)F)CC3)c3ccccc32)cn1 [Example 572, 5-chloro-2-(difluoromethyl)-N-((1r,4r)-4-((3-(6-((2-methoxyethyl)amino)pyridin-3-yl)-2-oxo-2,3-dihydro-1H-benzo[d]imidazol-1-yl)methyl)cyclohexyl)nicotinamide]
IC50: < 300 nM

Results, then the compound that gave them:

IC50: < 300 nM
SMILES: COC1CN(c2ccc(-n3c(=O)n(C[C@H]4CC[C@H](NC(=O)c5cc(Cl)cnc5C(F)F)CC4)c4ccccc43)cn2)C1 [Example 554, 5-chloro-2-(difluoromethyl)-N-((1r,4r)-4-((3-(6-(3-methoxyazetidin-1-yl)pyridin-3-yl)-2-oxo-2,3-dihydro-1H-benzo[d]imidazol-1-yl)methyl)cyclohexyl)nicotinamide]

IC50: < 300 nM
SMILES: CNC(=O)c1ccc(-n2c(=O)n(C[C@H]3CC[C@H](NC(=O)c4c5ccccc5nn4CC(F)(F)F)CC3)c3ccccc32)cn1 [Example 557, N-((1r,4r)-4-((3-(6-(methylcarbamoyl)pyridin-3-yl)-2-oxo-2,3-dihydro-1H-benzo[d]imidazol-1-yl)methyl)cyclohexyl)-2-(2,2,2-trifluoroethyl)-2H-indazole-3-carboxamide]

IC50: < 300 nM
SMILES: CC(=O)Nc1cc(C)c(-n2c(=O)n(C[C@H]3CC[C@H](NC(=O)c4cc(Cl)cnc4C(F)F)CC3)c3ccccc32)cn1 [Example 559, N-((1r,4r)-4-((3-(6-acetamido-4-methylpyridin-3-yl)-2-oxo-2,3-dihydro-1H-benzo[d]imidazol-1-yl)methyl)cyclo-hexyl)-5-chloro-2-(difluoro-methyl)nicotinamide]

IC50: < 300 nM
SMILES: CCC(=O)Nc1cc(C)c(-n2c(=O)n(C[C@H]3CC[C@H](NC(=O)c4cc(Cl)cnc4C(F)F)CC3)c3ccccc32)cn1 [Example 560, 5-chloro-2-(difluoromethyl)-N-((1r,4r)-4-((3-(4-methyl-6-propionamidopyridin-3-yl)-2-oxo-2,3-dihydro-1H-benzo [d]imidazol-1-yl)methyl)cyclo-hexyl)nicotinamide]

IC50: < 300 nM
SMILES: O=C(N[C@H]1CC[C@H](Cn2c(=O)n(-c3cnc(OCCO)cn3)c3ccccc32)CC1)c1cc(Cl)cnc1C(F)F [Example 563, 5-chloro-2-(difluoromethyl)-N-((1r,4r)-4-((3-(5-(2-hydroxyethoxy)pyrazin-2-yl)-2-oxo-2,3-dihydro-1H-benzo[d]imidazol-1-yl)methyl)cyclohexyl)nicotinamide]

IC50: < 300 nM
SMILES: O=C(N[C@H]1CC[C@H](Cn2c(=O)n(-c3cccc(N4CCOCC4)c3)c3ccccc32)CC1)c1cc(Cl)cnc1C(F)F [Example 566, 5-chloro-2-(difluoromethyl)-N-((1r,4r)-4-((3-(3-morpholinophenyl)-2-oxo-2,3-dihydro-1H-benzo[d]imidazol-1-yl)methyl)cyclo-hexyl)nicotinamide]
